# From article PMC12376128, “In vitro and In Vivo Drug Metabolism Analysis of BPI-460372 - A Covalent TEAD1/3/4 Inhibitor” (Current Drug Metabolism, 2025)
# Tests used:
# [1] = Stability in plasma; type: in vitro ADME; conditions: human plasma, 37°C, 4 h
# [2] = tested on: human hepatocytes; experiment: in vitro
# Protocol: (§1) After mixing, 20 μL of cell suspension was serially transferred into 200 μL of cold acetonitrile containing IS at the time points of 0, 5, 15, 30, 60, and 120 min, respectively.
# (§2) The metabolic stability was assessed by measuring the depletion of substrate. The half-life (t1/2), intrinsic clearance (CLint, in virto, µL·min^-1·million cells^-1), whole liver intrinsic clearance (CLint, in vivo, mL·min-1·kg^-1), and in vivo hepatic clearance (CLH, mL·min-1·kg^-1) were calculated following a reported method. In the calculation of CLH, the fraction drug unbound (Fub) was set as 1. The hepatic blood flow, liver weight, and hepatocellularity of five species were used for the calculation of CLint, in vivo [13, 14]. The hepatic extraction ratio (Eh) means the ratio of CLH to hepatic blood flow.
# [3] = in vitro; conditions: hepatocytes
# Protocol: as §1, §2
# [4] = tested on: mouse hepatocytes; experiment: in vitro
# Protocol: as §1, §2
# [5] = tested on: monkey hepatocytes; experiment: in vitro
# Protocol: as §1, §2
# [6] = tested on: rat hepatocytes; experiment: in vitro
# Protocol: as §1, §2
# [7] = tested on: dog hepatocytes; experiment: in vitro
# Protocol: as §1, §2
# [8] = set-up: method as in doi:10.1158/1538-7445.AM2024-7575; conditions: cited from earlier work
# [9] = molecular target: CYP2D6 (Homo sapiens, UniProt P10635); experiment: Metabolic stability in HLMs with or without specific CYP inhibitor (quinidine); type: in vitro ADME; set-up: HLMs (1 mg protein·mL^-1); tissue BioIVT; host or cells: pooled human liver microsomes; conditions: HLMs 1 mg protein/mL, substrate 1 μM, quinidine 20 µM
# Protocol: Before starting the experiments, the HLMs were thawed gently on ice. Metabolic stability incubations were performed at 37 °C. The incubations contained 100 mM phosphate buffer saline (PBS, pH 7.4), HLMs (1 mg protein·mL^-1), dimethyl sulfoxide (DMSO, blank control) or a selective CYP inhibitor, and BPI-460372 or positive control substrates (final incubation concentration, 1 μM). The incubation process started with the addition of NADPH (1 mM final concentration) after a 5-minute preincubation period. The chemical inhibitors were as follows: a-naphthoflavone (2 µM) for CYP1A2, ticlopidine (20 µM) for 2B6, quercetin (20 µM) for CYP2C8, sulfaphenazole (20 µM) for CYP2C9, ticlopidine (200 µM) for CYP2C19, quinidine (20 µM) for CYP2D6, and ketoconazole (20 µM) for CYP3A [9]. Aliquots were maintained in acetonitrile containing internal standard (IS) at various time points, such as 0 min, 5 min, 10 min, 20 min, 30 min, and 60 min. All incubations were performed in triplicate, and the concentration in the supernatant was determined by liquid chromatography-tandem mass spectrometry (LC-MS/MS).
# The elimination rate constant k (min^-1) was obtained by linear regression from the natural logarithm of the […] of the parent drug and the incubation time. The inhibition rate was calculated using equation 1 [10]: […]
# [10] = tested on: rat hepatocytes; experiment: Metabolism and metabolite formation in hepatocytes; type: in vitro ADME, SD rat; conditions: SD rat hepatocytes, 10 µM BPI-460372, 4 h incubation
# Excerpt: (§3) All the samples were duplicates.
# [11] = tested on: monkey hepatocytes; experiment: Metabolism and metabolite formation in hepatocytes; type: in vitro ADME, cynomolgus monkey; conditions: cynomolgus monkey hepatocytes, 10 µM BPI-460372, 4 h incubation
# Excerpt: as §3
# [12] = In vivo clearance; conditions: rats
# Sequence of CYP2D6 (P10635 whole entry): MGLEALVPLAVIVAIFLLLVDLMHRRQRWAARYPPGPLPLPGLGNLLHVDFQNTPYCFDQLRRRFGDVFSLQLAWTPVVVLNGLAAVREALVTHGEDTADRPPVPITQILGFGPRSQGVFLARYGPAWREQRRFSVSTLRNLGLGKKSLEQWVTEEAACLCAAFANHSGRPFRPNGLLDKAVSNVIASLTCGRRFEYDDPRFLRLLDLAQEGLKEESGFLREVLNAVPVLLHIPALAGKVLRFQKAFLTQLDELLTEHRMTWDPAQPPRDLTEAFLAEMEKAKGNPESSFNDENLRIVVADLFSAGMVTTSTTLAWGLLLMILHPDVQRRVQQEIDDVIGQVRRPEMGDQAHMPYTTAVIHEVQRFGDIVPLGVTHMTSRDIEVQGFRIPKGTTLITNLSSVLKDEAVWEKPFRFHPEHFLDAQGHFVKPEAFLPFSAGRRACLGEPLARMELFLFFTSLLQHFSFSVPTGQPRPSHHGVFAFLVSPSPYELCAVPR
structure (smiles),measurement,setting,value
C=C(F)C(=O)N1CC(n2c(=O)n(-c3ccc(C(F)(F)F)cc3)c3nccnc32)C1 [BPI-460372],Stability in plasma,[1],stable
same,"CLint, in vivo",[2]; hepatocytes,2.7 mL/min/kg
same,CLH,"[2]; human, 1 µM",2.4 mL/min/kg
same,Eh,"[2]; human, 1 µM",0.115
same,"CLint, in virto","[2]; human, hepatocytes",0.746 µL·min^-1·Million cells^-1
same,Clearance class from Eh,"[2]; human, hepatocytes",low clearance
same,Remaining percentage after 120 min incubation,"[2]; human, hepatocytes, 2 h, 1 µM",97.3%
same,half-life at 1 µM,"[3]; ICR, mouse",2.23 h
same,half-life at 1 µM,"[3]; SD, rat",3.93 h
same,half-life at 1 µM,"[3]; beagle, dog",3.19 h
same,half-life at 1 µM,[3]; human,15.5 h
same,half-life at 1 µM,[3]; monkey,2.79 h
same,CLH,"[4]; ICR, mouse, 1 µM",36.6 mL/min/kg
same,Eh,"[4]; ICR, mouse, 1 µM",0.406
same,Remaining percentage after 120 min incubation,"[4]; ICR, mouse, hepatocytes, 2 h, 1 µM",54.7%
same,"CLint, in vivo",[4]; hepatocytes,61.6 mL/min/kg
same,"CLint, in virto","[4]; mouse, hepatocytes",5.187 µL·min^-1·Million cells^-1
same,Clearance class from Eh,"[4]; mouse, hepatocytes",moderate clearance
same,CLH,"[5]; cynomolgus monkey, 1 µM",11.1 mL/min/kg
same,Eh,"[5]; cynomolgus monkey, 1 µM",0.253
same,"CLint, in vivo",[5]; hepatocytes,14.9 mL/min/kg
same,"CLint, in virto","[5]; monkey, hepatocytes",4.145 µL·min^-1·Million cells^-1
same,Clearance class from Eh,"[5]; monkey, hepatocytes",low clearance
same,Remaining percentage after 120 min incubation,"[5]; monkey, hepatocytes, 2 h, 1 µM",61.7%
same,CLH,"[6]; SD, rat, 1 µM",11.0 mL/min/kg
same,Eh,"[6]; SD, rat, 1 µM",0.200
same,Remaining percentage after 120 min incubation,"[6]; SD, rat, hepatocytes, 2 h, 1 µM",72.4%
same,"CLint, in vivo",[6]; hepatocytes,13.8 mL/min/kg
same,"CLint, in virto","[6]; rat, hepatocytes",2.941 µL·min^-1·Million cells^-1
same,Clearance class from Eh,"[6]; rat, hepatocytes",low clearance
same,CLH,"[7]; beagle, dog, 1 µM",13.8 mL/min/kg
same,Eh,"[7]; beagle, dog, 1 µM",0.446
same,Remaining percentage after 120 min incubation,"[7]; beagle, dog, hepatocytes, 2 h, 1 µM",66.6%
same,"CLint, in virto","[7]; dog, hepatocytes",3.619 µL·min^-1·Million cells^-1
same,Clearance class from Eh,"[7]; dog, hepatocytes",moderate clearance
same,"CLint, in vivo",[7]; hepatocytes,24.9 mL/min/kg
same,Preliminary efficacy,"[8]; patients with malignant mesothelioma, lung adenocarcinoma, and lung squamous cell carcinoma",preliminary efficacy was observed
same,Safety profile,[8]; solid tumor patients,good safety profile
same,Inhibition Rate,[9],17.0%
same,UV (314 nm) Peak Areas Relative Abundance,[10],70.87%
same,UV (314 nm) Peak Areas Relative Abundance,[11],63.98%
same,Clearance in vivo,[12],low clearance
